A short description of data set [1]: Comparative test on liquid-phase stability (HPLC, degradation product of formula 4). Type of data set: physicochemical. As to conditions: for Concentration (%) of degradation product (compound of the formula 4), Initial / Concentration (%) of degradation product (compound of the formula 4), 1 day (24 hours) elapsed: 20 mg/ml.
Data set [2] can be described thus: Comparative test on solid-phase stability (Karl Fischer, HPLC). The class given is physicochemical. As to conditions: for Total impurities (%), 1 month elapsed / Total impurities (%), Initial: HPLC area %; for Total impurities (%), 1 month elapsed / Moisture (%), 1 month elapsed: PE-bag, 75% RH, one month; for Moisture (%), 1 month elapsed / Moisture (%), Initial: Karl Fischer.

Data set [3] can be described thus: Comparative test on precipitation stability in pH 6.8 buffer. Type of data set: physicochemical. As to conditions: 10 mg/ml in buffer solution of pH 6.8, stored at 37° C. for 24 hours.
Data set [4] can be described thus: Comparative test on solubility of amorphous acid addition salts (supersaturation method). As to conditions: room temperature, solubility of acid addition salt per se, not converted to free base; for solubility: water, thermodynamic from solid, Water solubility.
Data set [5] is described as follows: Water solubility at room temperature of 1:1 co-crystals of the compound of the formula 1 with co-crystal formers. As to conditions: co-crystal at 1:1 molar ratio with compound of the formula 1.

Like-named read-outs stand apart in the source and are kept apart here.

For the compound `Cc1nc2c(O[C@H]3CCOc4cc(F)cc(F)c43)cc(C(=O)N(C)C)cc2[nH]1`, in data set [1], the “Concentration (%) of degradation product (compound of the formula 4), Initial” value amounted to 0.03% and the “Concentration (%) of degradation product (compound of the formula 4), 1 day (24 hours) elapsed” value worked out at 0.07%. In addition, in data set [2], the “Concentration of degradation products (%), Initial” value (“Concentration … (%), Initial” below) turned out to be 0.04%; the “Total impurities (%), 1 month elapsed” value amounted to 0.06%; the “Total impurities (%), Initial” value is given as 0.06%; the “Moisture (%), 1 month elapsed” value stood at 0.1%. The “Moisture (%), Initial” value in data set [2] stood at 0.1%. Further, in data set [2] (1 month), the “Concentration of degradation products (%), 1 month elapsed” value (“Concentration … (%), 1 month elapsed” below) came out at 0.04%. Besides, the “Soil precipitation or not” value in data set [3] is given as “a homogenous solution was maintained”. Moreover, the solubility in data set [4] is ≥ 50000 µg/mL.

In the case of `O=S(=O)(O)c1cccc2c(S(=O)(=O)O)cccc12` [1.5-naphinalenedisulfonic acid], the Water solubility in data set [4] stood at 2500 µg/mL.

As for `Cc1nc2c(OC3CCOc4cc(F)cc(F)c43)cc(C(=O)N(C)C)cc2[nH]1` (centres unmarked) [Amorphous free base], the solubility in data set [4] is 3000 µg/mL.

As for `C[C@H](N)C(=O)O` [L-Alanine], the Water-solubility in data set [5] was determined as 4000 µg/mL.

Consider `NCCCC[C@H](N)C(=O)O` [L-Lysine], for which the Water-solubility in data set [5] worked out at 8000 µg/mL.

`CC(C)[C@H](N)C(=O)O` [L-Valine]: the Water-solubility in data set [5] stood at 3000 µg/mL.

`CC(C)C[C@H](N)C(=O)O` [L-leucine]: the Water-solubility in data set [5] amounted to 12000 µg/mL.

On to `O=C1CC[C@@H](C(=O)O)N1` [L-pyroglutamic acid], for which, in data set [1], the “Concentration (%) of degradation product (compound of the formula 4), Initial” value stood at 0.02% and the “Concentration (%) of degradation product (compound of the formula 4), 1 day (24 hours) elapsed” value is on record as 0.05%. Moreover, in data set [2], the “Concentration … (%), Initial” value is recorded as 0.02%; the “Total impurities (%), 1 month elapsed” value was 0.07%; the “Total impurities (%), Initial” value was determined as 0.07%; the “Moisture (%), 1 month elapsed” value is on record as 0.1%. Further, in data set [2], the “Moisture (%), Initial” value is 0.1%. Further, in data set [2] (1 month), the “Concentration … (%), 1 month elapsed” value is 0.02%. In data set [3], the “Soil precipitation or not” value is “a homogenous solution was maintained”.

For the compound `Cc1ccc(S(=O)(=O)O)cc1` [p-toluenesulfonic acid], the Water solubility in data set [4] came out at 27000 µg/mL.

Take Fumaric acid: the “physical state of the solution (homogenous liquid-phase state or gel)” value in data set [1] (20 mg/ml in purified water, stirred at 40° C.) is recorded as “formed a sticky gel”. In data set [2], the “Concentration … (%), 1 month elapsed” value was 0.12%; the “Concentration … (%), Initial” value came out at 0.09%; the “Total impurities (%), 1 month elapsed” value is 0.43%; the “Total impurities (%), Initial” value was 0.14%. In data set [2], the “Moisture (%), 1 month elapsed” value came out at 0.3% and the “Moisture (%), Initial” value was 0.1%. For the same compound, the “Soil precipitation or not” value in data set [3] is recorded as “Precipitated”. The “Soil precipitation or not” value in data set [3] (listed as fumaric acid) is reported as “a solid was precipitated”.

Broadly, the solubility is the dissolved amount per volume that the medium holds.
